Tested on: Klebsiella isolates
Experiment: Acoustic flow cytometry-assisted susceptibility test (FAST), MICFAST and S/NS, Klebsiella isolates
Type: cell-based, Klebsiella pneumoniae, Klebsiella oxytoca
Procedure: A 1 mL aliquot of bacterial suspension was centrifuged, washed and resuspended in 1 mL filtered Hank's Buffered Salt Solution (HBSS; comprising about 0.137 M NaCl, about 5.4 mM KCl, about 0.25 mM Na2HPO4, about 0.1 g Glucose, about 0.44 mM KH2PO4, 1.3 mM CaCl2), 1.0 mM MgSO4, about 1.3 mM CaCl2), 1.0 mM MgSO4, and about 4.2 mM NaHCO3) and diluted in series (e.g., in a 1:10 serial dilution) to a final 1:1000 dilution.
One μL (microliter) of SYTO 9 stain (e.g., ThermoFisher Scientific) working stock solution was added to the final dilution at a final concentration of 5 μM and incubated for 5 minutes before counting bacterial events by acoustic flow cytometer (AFC) (Attune, ThermoFisher, Eugene, Oreg., USA), which was used to prepare a standardised inoculum density for susceptibility testing.
An aliquot of bacterial suspension was added to 50 mL centrifuge tubes (Corning, N.Y.) containing 9 mL of pre-warmed (37° C.) filtered MHB to produce a final density of 5×10^5-1×10^6 bacteria per mL. This suspension was incubated at 37° C. with shaking at 100 RPM for 30 minutes to obtain an actively dividing culture. An aliquot of antibiotic working solution from the previously described dilution series (appropriate to the concentration tested) was then added to each tube before a further 30-minute incubation with shaking, during which time a microbroth dilution (MBD) plate was prepared for overnight incubation at 37° C. as previously described in Clinical and Laboratory Standards Institute (2015) Performance Standards for Antimicrobial Susceptibility Testing: Informational Supplement. CLSI document M100-S25. Clinical and Laboratory Standards Institute, 950, West Valley Road, Suite 2500, Wayne, Pa., 19087, USA.
One millilitre of bacterial suspension from each antibiotic concentration was harvested by centrifugation at 7800×g for 5 minutes, washed and diluted 1:10 in filtered HBSS in a light-impermeable microcentrifuge tube, then stained with SYTO 9 stain at a final concentration of 5 μM, and incubated for 5 min before AFC sampling. Hoechst 33342 dye (NucBlue, Thermo Fisher Scientific, Eugene, Oreg., USA) and a SYTO 9/propidium iodide (PI) combination (Thermo Fisher Scientific) were used in a series of replicate experiments.
The acoustic flow cytometer employed was Attune acoustic flow cytometer (Thermo Fisher Scientific), having installed therein a 488 nm blue laser with a 530/30 nm filter on the photomultiplier tube for measuring fluorescence of cells assayed. Alternatively, the Attune NxT acoustic flow cytometer (Thermo Fisher Scientific) can be employed. AFC was calibrated at the beginning of each acquisition session using fluorescently labelled size calibration beads, in accordance with the manufacturer's instructions (ThermoFisher Scientific). The AFC settings were as follows: Forward Scatter (FSC) voltage 3100, FSC threshold 4×1000 AND, blue laser 1 (BL1—530/30 nm) voltage 1900, BL1 threshold 1×1000 AND, high sensitivity, flow rate 25 μL/minute, and an acquisition volume of 125 μL. Acquisition was halted after either collection of 20,000 events across all gates, or after 3 minutes, with each sample acquired in technical triplicate.
Collected data was exported in the FCS 3.0 file format and analysed in Flow v10.0 (FlowJo LLC, Ashland, Oreg., USA) by a single user, blinded to the MIC results by BMD (MICBMD).
Subsequent to quantitative MICFAST determination, the acoustic flow cytometer data were re-analysed in silico to produce a limited sub-set for qualitative susceptibility determination. The six antibiotic dilutions (0 mg/L, 0.25 mg/L, 1 mg/L, 2 mg/L, 4 mg/L and 16 mg/L) most relevant to qualitative susceptibility assessment were used. In silico analysis was restricted to the first technical triplicate of each recorded sample. Gating strategies remained consistent, with the addition of a gate restricting analysis to only those events recorded in the first 60 seconds of acquisition.

[1] = isolate 3000770, England, NDM-1
[2] = isolate 3040820, England, pAmpC
[3] = isolate ATCC BAA 1705, USA, KPC
[4] = isolate K16, Australia, IMP - 4
[5] = isolate K23, Australia, IMP - 4
[6] = isolate KS1, Sri Lanka, OXA-181
[7] = isolate KS2, Sri Lanka, OXA-181
[8] = isolate KS17, Sri Lanka, OXA-181
[9] = isolate KS23, Sri Lanka, OXA-181

In the case of `C[C@@H](O)[C@H]1C(=O)N2C(C(=O)O)=C(S[C@@H]3CN[C@H](C(=O)N(C)C)C3)[C@H](C)[C@H]12` [meropenem], the “FAST S/NS” value (isolate 2440606, England) is reported as “S (S = MIC ≤2 mg/L)”, the MICFAST (isolate 2440606, England) is reported as no more than 0.25 mg/L and the “FAST S/NS” value (isolate 2880622, England) is reported as “S (S = MIC ≤2 mg/L)”. The MICFAST (isolate 2880622, England) was no more than 0.25 mg/L, the “FAST S/NS” value (isolate 2880654, England, KPC) was “NS (NS = MIC >2 mg/L)” and the MICFAST (isolate 2880654, England, KPC) was 32 mg/L. For the same molecule, the “FAST S/NS” value (isolate 2890369, England) was “S (S = MIC ≤2 mg/L)”, the MICFAST (isolate 2890369, England) was 0.5 mg/L and the “FAST S/NS” value (isolate 2980639, England) was “S (S = MIC ≤2 mg/L)”. For the same molecule, the MICFAST (isolate 2980639, England) was 0.5 mg/L, the “FAST S/NS” value [1] was “NS (NS = MIC >2 mg/L)” and the MICFAST [1] was 8 mg/L. The “FAST S/NS” value [2] was “S (S = MIC ≤2 mg/L)”, the MICFAST [2] was no more than 0.25 mg/L and the “FAST S/NS” value (isolate 3080800, England, KPC) was “NS (NS = MIC >2 mg/L)”. For the same molecule, the MICFAST (isolate 3080800, England, KPC) was 32 mg/L, the “FAST S/NS” value (isolate A1, Norway) was “S (S = MIC ≤2 mg/L)” and the MICFAST (isolate A1, Norway) was no more than 0.25 mg/L. For the same molecule, the “FAST S/NS” value (isolate A2, Norway) was “S (S = MIC ≤2 mg/L)”, the MICFAST (isolate A2, Norway) was no more than 0.25 mg/L and the “FAST S/NS” value (isolate A3, Norway) was “S (S = MIC ≤2 mg/L)”. The MICFAST (isolate A3, Norway) was no more than 0.25 mg/L, the “FAST S/NS” value (isolate A4, Norway) was “S (S = MIC ≤2 mg/L)” and the MICFAST (isolate A4, Norway) was no more than 0.25 mg/L. For the same molecule, the “FAST S/NS” value (isolate A7, Norway) was “S (S = MIC ≤2 mg/L)”, the MICFAST (isolate A7, Norway) was no more than 0.25 mg/L and the “FAST S/NS” value (isolate A13, Norway) was “S (S = MIC ≤2 mg/L)”. The MICFAST (isolate A13, Norway) was no more than 0.25 mg/L, the “FAST S/NS” value (isolate A15, Norway) was “S (S = MIC ≤2 mg/L)” and the MICFAST (isolate A15, Norway) was no more than 0.25 mg/L. For the same molecule, the “FAST S/NS” value (isolate A16, Norway) was “S (S = MIC ≤2 mg/L)”, the MICFAST (isolate A16, Norway) was no more than 0.25 mg/L and the “FAST S/NS” value (isolate A20, Norway, NDM-1) was “NS (NS = MIC >2 mg/L)”. For the same molecule, the MICFAST (isolate A20, Norway, NDM-1) was 16 mg/L, the “FAST S/NS” value (isolate ATCC 700603, USA) was “S (S = MIC ≤2 mg/L)” and the MICFAST (isolate ATCC 700603, USA) was no more than 0.25 mg/L. The “FAST S/NS” value [3] was “NS (NS = MIC >2 mg/L)”, the MICFAST [3] was 8 mg/L and the “FAST S/NS” value (isolate ATCC BAA 1706, USA) was “S (S = MIC ≤2 mg/L)”. The MICFAST (isolate ATCC BAA 1706, USA) was no more than 0.25 mg/L, the “FAST S/NS” value (isolate K1, Australia, OXA-181) was “NS (NS = MIC >2 mg/L)” and the MICFAST (isolate K1, Australia, OXA-181) was 32 mg/L. The “FAST S/NS” value (isolate K2, Australia, OXA-181) was “NS (NS = MIC >2 mg/L)”, the MICFAST (isolate K2, Australia, OXA-181) was 32 mg/L and the “FAST S/NS” value (isolate K8, Australia, NDM-1) was “NS (NS = MIC >2 mg/L)”. For the same molecule, the MICFAST (isolate K8, Australia, NDM-1) was greater than 256 mg/L, the “FAST S/NS” value (isolate K14, Australia, KPC) was “NS (NS = MIC >2 mg/L)” and the “FAST S/NS” value [4] was “S (S = MIC ≤2 mg/L)”. The MICFAST [4] was 2 mg/L, the “FAST S/NS” value [5] was “S (S = MIC ≤2 mg/L)” and the MICFAST [5] was 0.5 mg/L. The “FAST S/NS” value [6] was “S (S = MIC ≤2 mg/L)”, the MICFAST [6] was 2 mg/L and the “FAST S/NS” value [7] was “NS (NS = MIC >2 mg/L)”. The MICFAST [7] was 16 mg/L, the “FAST S/NS” value [8] was “NS (NS = MIC >2 mg/L)” and the MICFAST [8] was 64 mg/L. For the same molecule, the “FAST S/NS” value [9] was “NS (NS = MIC >2 mg/L)”, the MICFAST [9] was 64 mg/L and the “FAST S/NS” value (isolate N17, Sweden, NDM-1) was “NS (NS = MIC >2 mg/L)”. The MICFAST (isolate N17, Sweden, NDM-1) was 32 mg/L.

Source: patent US20210292807A1, “METHOD FOR TESTING ANTIMICROBIAL SUSCEPTIBILITY” (priority 2017, published 2021)
